From paper PMC9304322, “Targeting retinoic acid receptor alpha-corepressor interaction activates chaperone-mediated autophagy and protects against retinal degeneration” (Nature Communications, 2022)
“And” between values parts separate entries of the source, which are not always exact repeats. Identical values can stand only once.

How the values were obtained:
[1] = tested on: NIH3T3 cells stably expressing the mCherry-GFP-LC3 reporter; assay: Macroautophagy activity, mCherry-GFP-LC3 reporter; format: cell-based, mouse
Procedure: Cells were transduced with a lentiviral vector expressing mCherry-GFP-LC3[35], fixed and flux determined as the conversion of dual fluorescence puncta (autophagosomes) into only red fluorescent puncta (autolysosomes). Flux was also measured by immunoblot for LC3 in cells incubated for 6 h with 20 mM NH4Cl/100 μM leupeptin, by discounting the intensity of LC3 in non-treated cells from that in cells treated with the inhibitors.

[2] = tested on: NIH3T3; assay: Intracellular proteolysis of long half-life proteins; format: cell-based, mouse
Procedure: Confluent cells were labelled with [^3H]leucine (2μCi/ml) (NEN-PerkinElmer Life Sciences) for 48 h and then extensively washed and maintained in medium with an excess of unlabeled leucine. Proteolysis was calculated from aliquots of the medium taken at different times and precipitated in trichloroacetic acid, as the amount of acid-precipitable radioactivity transformed to acid-soluble radioactivity at each time. Where indicated cell were treated during the chase with […] leupeptin (Sigma, #108975) and […] NH4Cl (to determine lysosomal degradation) or with 100 μm MRT 68921 dihydrochloride (Tocris, #5780) (to determine macroautophagy degradation).

[3] = tested on: NIH3T3 stably expressing the KFERQ-PS-Dendra; assay: CMA activity, KFERQ-PS-Dendra fluorescent reporter in NIH3T3 mouse fibroblasts; format: cell-based; set-up: CMA activity (Fig. 1d), MEAN / CMA activity (Fig. 1e-g), mean / CMA activity (Fig. 1d), individual experiments / CMA activity, mean (Fig. S2c, second panel) / CMA activity, mean (Fig. S2c, first panel) / CMA activity, mean (Fig. S2c, third panel): unit not given here; settings: for CMA activity (Fig. 1e-g), mean: n = 4
Procedure: Cells were transduced with lentivirus carrying the KFERQ-PS-Dendra reporter as before. Cells were photoactivated by exposure to a 3.5 mA (current constant) light emitting diode (LED: Norlux, 405 nm) for 3 min and then plated in glass-bottom 96 well plates. At the desired times, cells were fixed with 4% PFA and imaged using high-content microscopy (Operetta system, Perkin Elmer). Images were quantified using the manufacturer’s software in a minimum of 1,200 cells in 9 independent fields per well. […] This was particularly important in the case of primary human cells where the efficiency of transduction was ~65%. To avoid confounding effects for drug-induced changes in cell volume or adherence to the plate that could bring a fraction of the cells per field outside of focus, we set a threshold to count only […] that have at least 1/10 of the average number of […] detected in the untreated wells for each cell type (3–4 puncta/cell in the case of NIH3T3 and N2a cells and 5 puncta/cell in primary human fibroblasts).

[4] = c0 = 2 (axis unlabelled; ANOVA calls row factor Time)

CC(=O)Nc1ccc(C2=Nc3ccc(Cl)cc3OC2)cc1 [CA77]
effect on macroautophagy ([1]; NIH3T3, MRT-sensitive proteolysis, LC3-II flux, mCherry-GFP-LC3 reporter): did not have the inhibitory effect on macroautophagy
APG (Fig. S3e) [1, 4]: 3.899
AUT (Fig. S3e) [1, 4]: 0.5811
AV (Fig. S3e) [1, 4]: 4.481
APG (Fig. S3e) ([1]; c0 = 5 (axis unlabelled)): 3.275
AUT (Fig. S3e) ([1]; c0 = 5 (axis unlabelled)): 0.7542
AV (Fig. S3e) ([1]; c0 = 5 (axis unlabelled)): 4.029
APG (Fig. S3e) ([1]; c0 = 10 (axis unlabelled)): 2.43
AUT (Fig. S3e) ([1]; c0 = 10 (axis unlabelled)): 3.694
AV (Fig. S3e) ([1]; c0 = 10 (axis unlabelled)): 6.1244
APG (Fig. S3e) ([1]; c0 = 15 (axis unlabelled)): 2.828
AUT (Fig. S3e) ([1]; c0 = 15 (axis unlabelled)): 3.073
AV (Fig. S3e) ([1]; c0 = 15 (axis unlabelled)): 5.901
APG (Fig. S3e) ([1]; c0 = 20 (axis unlabelled)): 2.044
AUT (Fig. S3e) ([1]; c0 = 20 (axis unlabelled)): 3.746
AV (Fig. S3e) ([1]; c0 = 20 (axis unlabelled)): 5.79
APG (Fig. S3e) ([1]; c0 = 25 (axis unlabelled)): 2.063
AUT (Fig. S3e) ([1]; c0 = 25 (axis unlabelled)): 4.0642
AV (Fig. S3e) ([1]; c0 = 25 (axis unlabelled)): 6.127
APG (Fig. S3e) ([1]; c0 = 30 (axis unlabelled)): 2.895
AUT (Fig. S3e) ([1]; c0 = 30 (axis unlabelled)): 3.5777
AV (Fig. S3e) ([1]; c0 = 30 (axis unlabelled)): 6.473
APG (Fig. S3e) ([1]; c0 = 40 (axis unlabelled)): 2.857
AUT (Fig. S3e) ([1]; c0 = 40 (axis unlabelled)): 3.822
AV (Fig. S3e) ([1]; c0 = 40 (axis unlabelled)): 6.679
APG (Fig. S3e) ([1]; c0 = 50 (axis unlabelled)): 4.838
AUT (Fig. S3e) ([1]; c0 = 50 (axis unlabelled)): 2.082
AV (Fig. S3e) ([1]; c0 = 50 (axis unlabelled)): 6.9193
duration of the increase in degradation of long-lived proteins ([2]; NIH3T3, 10 μM): remained upregulated 24 h
Lysosomal proteolysis, Mean (Fig. S3c) ([2]; Time 6): 3.76
Lysosomal proteolysis, Mean (Fig. S3c) ([2]; Time 12): 7.75
CMA activity (Fig. 1d), MEAN ([3]; 20 μM of each compound, n = 3 independent experiments): 3.597
CMA activity (Fig. 1d), individual experiments ([3]; 20 μM of each compound, single experiments): 3.288 and 3.538 and 3.964
CMA activity (Fig. 1e-g), mean ([3]; 12h, concentration 0.02 (unit not given)): 6.451
CMA activity (Fig. 1e-g), mean ([3]; 12h, concentration 0.2): 6.218
CMA activity (Fig. 1e-g), mean ([3]; 12h, concentration 2): 6.38
CMA activity (Fig. 1e-g), mean ([3]; 12h, concentration 5): 31.6977
CMA activity (Fig. 1e-g), mean ([3]; 12h, concentration 10): 39.5886
CMA activity (Fig. 1e-g), mean ([3]; 12h, concentration 20): 52.9995
CMA activity (Fig. 1e-g), mean ([3]; 12h, concentration 30): 60.386
CMA activity (Fig. 1e-g), mean ([3]; 12h, concentration 40): 43.8824
CMA activity (Fig. 1e-g), mean ([3]; 12h, concentration 50): 33.4774
CMA activity (Fig. 1e-g), mean ([3]; 24h, concentration 0.02): 5.564
CMA activity (Fig. 1e-g), mean ([3]; 24h, concentration 0.2): 6.782
CMA activity (Fig. 1e-g), mean ([3]; 24h, concentration 2): 8.318
CMA activity (Fig. 1e-g), mean ([3]; 24h, concentration 5): 26.3626
CMA activity (Fig. 1e-g), mean ([3]; 24h, concentration 10): 39.2844
CMA activity (Fig. 1e-g), mean ([3]; 24h, concentration 20): 59.6703
CMA activity (Fig. 1e-g), mean ([3]; 24h, concentration 30): 82.4074
CMA activity (Fig. 1e-g), mean ([3]; 24h, concentration 40): 57.9474
CMA activity (Fig. 1e-g), mean ([3]; 24h, concentration 50): 59.2412
CMA activity (Fig. 1h-j), mean, untreated (0) = 1 ([3]; concentration 0.2, 12+12w (12 h, then 12 h after washing out)): 0.8003
CMA activity (Fig. 1h-j), mean, untreated (0) = 1 ([3]; concentration 0.2, 12h): 0.5989
CMA activity (Fig. 1h-j), mean, untreated (0) = 1 ([3]; concentration 0.2, 24h): 0.8798
CMA activity (Fig. 1h-j), mean, untreated (0) = 1 ([3]; concentration 2, 12+12w): 0.935
CMA activity (Fig. 1h-j), mean, untreated (0) = 1 ([3]; concentration 2, 12h): 0.6146
CMA activity (Fig. 1h-j), mean, untreated (0) = 1 ([3]; concentration 2, 24h): 1.079
CMA activity (Fig. 1h-j), mean, untreated (0) = 1 ([3]; concentration 5, 12+12w): 4.471
CMA activity (Fig. 1h-j), mean, untreated (0) = 1 ([3]; concentration 5, 12h): 3.053
CMA activity (Fig. 1h-j), mean, untreated (0) = 1 ([3]; concentration 5, 24h): 3.42
CMA activity (Fig. 1h-j), mean, untreated (0) = 1 ([3]; concentration 10, 12+12w): 4.902
CMA activity (Fig. 1h-j), mean, untreated (0) = 1 ([3]; concentration 10, 12h): 3.813
CMA activity (Fig. 1h-j), mean, untreated (0) = 1 ([3]; concentration 10, 24h): 5.096
CMA activity (Fig. 1h-j), mean, untreated (0) = 1 ([3]; concentration 20, 12+12w): 5.399
CMA activity (Fig. 1h-j), mean, untreated (0) = 1 ([3]; concentration 20, 12h): 5.105
CMA activity (Fig. 1h-j), mean, untreated (0) = 1 ([3]; concentration 20, 24h): 7.74
CMA activity (Fig. 1h-j), mean, untreated (0) = 1 ([3]; concentration 30, 12+12w): 7.708
CMA activity (Fig. 1h-j), mean, untreated (0) = 1 ([3]; concentration 30, 12h): 5.817
CMA activity (Fig. 1h-j), mean, untreated (0) = 1 ([3]; concentration 30, 24h): 10.6896
CMA activation compared with AR7 ([3]; fluorescent CMA reporter in mouse fibroblasts, basal and inducible CMA): > 40 % CMA of AR7
toxicity in cells ([3]; mouse fibroblasts): without noticeable toxicity
